Source: the NIST ThermoML archive (doi:10.1021/je100788g)
± gives the expanded uncertainty stated by the source.

Columns and labels:
[1] = Vibrating tube method
[2] = refractive index (Na D-line) (dimensionless); settings: 298.15 K; 101.33 kPa; Liquid; Standard Abbe refractometry
[3] = xn = mol fraction of the nth substance listed; settings: 313.15 K, Fluid (supercritical or subcritical phases), Vibrating tube method

CCCCO [butan-1-ol]
[1], Liquid
Settings	mass density [kg/m3]
298.15 K, 101.33 kPa	805.8 ± 0.2
313.15 K, 1000 kPa	794.9 ± 0.2
313.15 K, 2000 kPa	795.6 ± 0.2
313.15 K, 3000 kPa	796.3 ± 0.2
313.15 K, 4000 kPa	797 ± 0.2
313.15 K, 5000 kPa	797.6 ± 0.2
313.15 K, 6000 kPa	798.3 ± 0.3
313.15 K, 7000 kPa	798.9 ± 0.3
313.15 K, 8000 kPa	799.6 ± 0.3
313.15 K, 9000 kPa	800.2 ± 0.3
313.15 K, 10000 kPa	800.9 ± 0.3

Settings	refractive index
[2]	1.3973 ± 0.0028

O=C=O [carbon dioxide] + CCCCO
[3], x1 = 1
Settings	mass density [kg/m3]
1000 kPa	17.9 ± 0.2
2000 kPa	37.1 ± 0.2
3000 kPa	58.7 ± 0.2
4000 kPa	83.5 ± 0.2
5000 kPa	112.7 ± 0.2
6000 kPa	148.8 ± 0.3
7000 kPa	197.3 ± 0.3
8000 kPa	276.7 ± 0.4
9000 kPa	483.4 ± 0.5
10000 kPa	627.4 ± 0.5

O=C=O [carbon dioxide]
[1], 313.15 K, Fluid (supercritical or subcritical phases)
Settings	mass density [kg/m3]
1000 kPa	17.9 ± 0.2
2000 kPa	37.1 ± 0.2
3000 kPa	58.7 ± 0.2
4000 kPa	83.5 ± 0.2
5000 kPa	112.7 ± 0.2
6000 kPa	148.8 ± 0.3
7000 kPa	197.3 ± 0.3
8000 kPa	276.7 ± 0.4
9000 kPa	483.4 ± 0.5
10000 kPa	627.4 ± 0.5

CCCCO [butan-1-ol] + O=C=O
[3]
Settings	mass density [kg/m3]
1000 kPa, x2 = 0	794.9 ± 0.2
2000 kPa, x2 = 0	795.6 ± 0.2
2000 kPa, x2 = 0.103	802.2 ± 0.3
3000 kPa, x2 = 0	796.3 ± 0.2
3000 kPa, x2 = 0.103	803 ± 0.3
4000 kPa, x2 = 0	797 ± 0.2
4000 kPa, x2 = 0.103	803.8 ± 0.3
4000 kPa, x2 = 0.204	810.6 ± 0.3
5000 kPa, x2 = 0	797.6 ± 0.2
5000 kPa, x2 = 0.103	804.6 ± 0.3
5000 kPa, x2 = 0.204	811.6 ± 0.3
5000 kPa, x2 = 0.3	817 ± 0.3
6000 kPa, x2 = 0	798.3 ± 0.3
6000 kPa, x2 = 0.103	805.4 ± 0.3
6000 kPa, x2 = 0.204	812.4 ± 0.3
6000 kPa, x2 = 0.3	818.1 ± 0.3
7000 kPa, x2 = 0	798.9 ± 0.3
7000 kPa, x2 = 0.103	806.2 ± 0.3
7000 kPa, x2 = 0.204	813.4 ± 0.3
7000 kPa, x2 = 0.3	819.1 ± 0.3
7000 kPa, x2 = 0.404	825.1 ± 0.3
7000 kPa, x2 = 0.503	829.1 ± 0.3
8000 kPa, x2 = 0	799.6 ± 0.3
8000 kPa, x2 = 0.103	806.9 ± 0.3
8000 kPa, x2 = 0.204	814.3 ± 0.3
8000 kPa, x2 = 0.3	820.2 ± 0.3
8000 kPa, x2 = 0.404	826.5 ± 0.3
8000 kPa, x2 = 0.503	830.9 ± 0.3
8000 kPa, x2 = 0.6	830.9 ± 0.3
8000 kPa, x2 = 0.703	824.9 ± 3
9000 kPa, x2 = 0	800.2 ± 0.3
9000 kPa, x2 = 0.103	807.7 ± 0.3
9000 kPa, x2 = 0.204	815.2 ± 0.3
9000 kPa, x2 = 0.3	821.2 ± 0.3
9000 kPa, x2 = 0.404	827.8 ± 0.3
9000 kPa, x2 = 0.503	832.6 ± 0.3
9000 kPa, x2 = 0.6	833.4 ± 0.3
9000 kPa, x2 = 0.703	829.1 ± 0.3
9000 kPa, x2 = 0.802	810.5 ± 0.7
9000 kPa, x2 = 0.9	762.6 ± 1.4
9000 kPa, x2 = 0.95	704.5 ± 5.6
10000 kPa, x2 = 0	800.9 ± 0.3
10000 kPa, x2 = 0.103	808.4 ± 0.3
10000 kPa, x2 = 0.204	816.1 ± 0.3
10000 kPa, x2 = 0.3	822.3 ± 0.3
10000 kPa, x2 = 0.404	829.1 ± 0.3
10000 kPa, x2 = 0.503	834.3 ± 0.3
10000 kPa, x2 = 0.6	835.8 ± 0.3
10000 kPa, x2 = 0.703	833.1 ± 0.3
10000 kPa, x2 = 0.802	817.8 ± 0.6
10000 kPa, x2 = 0.9	779.1 ± 1.1
10000 kPa, x2 = 0.95	735.5 ± 3
